How the values were obtained:
Type in all cases: cell-based, human
TE-ES and TE-OS models = experiment: Linsitinib titration on TE-ES and TE-OS bone tumor models, luminescence as cancer cell viability; settings: 21-day treatment cycle
Protocol: The cells were allowed to attach for 2 hours, and then supplemented with additional mesenchymal stem cell medium overnight. The following day, osteogenic differentiation of the seeded cells was initiated by addition of low glucose DMEM supplemented with 1 μM dexamethasone (Sigma-Aldrich), 10 mM β-glycerophosphate (SigmaAldrich), and 50 μM L-ascorbic acid-2-phosphate (Sigma Aldrich). Each scaffold was incubated in 4 mL of osteogenic media, with media changes three times a week, for 3 weeks, allowing for the MSCs to differentiate into functional, maturing osteoblasts. Two weeks following the initiation of osteogenic differentiation, aggregates of tumor cells were prepared as described previously. Briefly, 0.3×10^6 cells were used to form ES aggregates and 0.5×10^6 cells were used to form OS aggregates. After 1 week of culture, the primary bone tumor aggregates were infused into the differentiated osteoblastseeded bone scaffolds (3 aggregates per scaffold, placed apart of each other). […] Cell viability: Cancer cell viability was measured for GFP-Luciferase labelled cancer cells using ONE-Glo luciferase substrate that was prepared according to manufacturer's protocol (Promega). […] Cardiac cell viability was assessed through the Pierce LDH Cytotoxicity Assay Kit (Thermo Fisher Scientific). […]

[1] = system: metastatic (KHOS/NP cell line derived) osteosarcoma OOC; experiment: Metastatic osteosarcoma OOC, luciferase luminescence (cancer cell number and viability); settings: 12 μM
Protocol: (§1) Drug treatment experiments recapitulating the patient treatment regimens and the patient plasma concentration of 12 μM of linsitinib were then carried out on the nonmetastatic and metastatic TE-ES and OS models. FIGS. 44 and 45 are graphs illustrating non-metastatic (U2-OS cell line derived, FIG. 44) and metastatic (KHOS/NP cell line derived, FIG. 45) osteosarcoma OOCs exposed to linsitinib (12 μM) according to the drug treatment regimen outlined. Luminescence as a function of cancer cell number and viability was measured (mean±s.e.m., n=6 for day 3, and n=3 for day 7 and 21, biologically independent per group). Significance was determined by unpaired two-tailed Student's t test of treatment group at specific day with respective control; *P<0.05; **P<0.01; ***P<0.001. Tissue engineered bone tumor models: Using an established protocol, expanded MSCs were seeded into the bone matrix scaffolds (4 mm×4 mm×1 mm) at a concentration of 10^6 cells per scaffold, using 40 μL of medium. The cells were allowed to attach for 2 hours, and then supplemented with additional mesenchymal stem cell medium overnight. The following day, osteogenic differentiation of the seeded cells was initiated by addition of low glucose DMEM supplemented with 1 μM dexamethasone (Sigma-Aldrich), 10 mM β-glycerophosphate (SigmaAldrich), and 50 μM L-ascorbic acid-2-phosphate (Sigma Aldrich). Each scaffold was incubated in 4 mL of osteogenic media, with media changes three times a week, for 3 weeks, allowing for the MSCs to differentiate into functional, maturing osteoblasts. Two weeks following the initiation of osteogenic differentiation, aggregates of tumor cells were prepared as described previously. Briefly, 0.3×10^6 cells were used to form ES aggregates and 0.5×10^6 cells were used to form OS aggregates. […] Cell viability: Cancer cell viability was measured for GFP-Luciferase labelled cancer cells using ONE-Glo luciferase substrate that was prepared according to manufacturer's protocol (Promega). […] Cardiac cell viability was assessed through the Pierce LDH Cytotoxicity Assay Kit (Thermo Fisher Scientific). […]

ES model = experiment: Immunohistochemical Ki67 staining and TUNEL assay of the ES model; settings: ES model after linsitinib treatment
Source text: To assess apoptosis, paraffin embedded tissue sections were first deparaffinized with CitriSolv, rehydrated with graded series of ethanol washes, and then stained with a Click-iT® TUNEL Alexa Fluor® imaging assay (Thermo Fisher Scientific).

[2] = system: non-metastatic (U2-OS cell line derived) osteosarcoma OOC; experiment: Non-metastatic osteosarcoma OOC, luciferase luminescence (cancer cell number and viability); settings: 12 μM
Protocol: as §1

C[C@]1(O)C[C@@H](c2nc(-c3ccc4ccc(-c5ccccc5)nc4c3)c3c(N)nccn32)C1 [linsitinib, Linsitinib (OSI-906)]
luminescence signal as indicator of cancer cell viability (TE-ES and TE-OS models; 12 μM, ES and OS models): significant responses | luminescence signal as indicator of cancer cell viability, titration (TE-ES and TE-OS models; linsitinib titration): dose response | luminescence (cancer cell number and viability) vs control ([1]; after 3 days): significant drug response | drug efficacy ([1]; by day 7): stopped being effective | course of tumor ([1]; day 7 to D21): rapidly expand before stabilizing by D21 | apoptosis by TUNEL assay (ES model): increases in apoptosis | proliferation via Ki67-staining (ES model): reduced proliferation | course of treated cancer cell population ([2]; after 3 weeks): no longer expanding | luminescence (cancer cell number and viability) vs control ([2]; after 3 weeks of drug treatment): significant response | luminescence (cancer cell number and viability) vs control ([2]; after 3 days): no significant response
